For 18 molecules, EC50 results are on record in US9156872B2, “2′-azido substituted nucleoside derivatives and methods of use thereof for the treatment of viral diseases” (priority 2011, dated 2015).

Each structure is given as a SMILES string. Read-outs that look alike come from different tables or passages of the source.

This assay deals with HCV replicon cells. Nature of the assay: Cell-based HCV replicon assay (replicon RNA by Taqman real time PCR). Conditions: read-out: 1b EC50. In general terms: Replicon systems follow genome replication, usually without infectious particles.
[1] abbreviates: Hepatitis C virus, 72 h, HCV replicon 1b, cells harvested on day 3.

Regarding `CC(C)OP1(=O)OC[C@H]2O[C@@H](n3ccc(=O)[nH]c3=O)[C@](C)(N=[N+]=[N-])[C@@H]2O1` (single isomer, unassigned) [Compound 563], the concentration giving a half-maximal response (EC50) (commonly the concentration needed to bring the measured effect to its halfway point) (HCV replicon 1b, cells harvested on day 3) is over 100 µM. As to `C[C@@]1(N=[N+]=[N-])[C@H](O)[C@@H](CO)O[C@H]1n1ccc(=O)[nH]c1=O` [Compound 4], the EC50 under setting [1] is over 100 µM. Take `CCCCOC(=O)[C@H](C)NP(=O)(OC[C@H]1O[C@@H](n2cnc3c(OCC)nc(N)nc32)[C@](C)(N=[N+]=[N-])[C@@H]1O)Oc1cccc2ccccc12` (stereo partly drawn) [Compound 12]: the half-maximal effective concentration (EC50) (Hepatitis C virus, 72 h) turned out to be 1.3 µM. For the molecule `CCOc1nc(N)nc2c1ncn2[C@@H]1O[C@H](COP(=O)(N[C@@H](C)C(=O)OC2CCC2)Oc2ccccc2)[C@@H](O)[C@@]1(C)N=[N+]=[N-]` (single isomer, unassigned) [Compound 363], the half-maximal effective concentration (EC50) came to 0.2 µM. With `COC(=O)[C@H](C)NP(=O)(OC[C@H]1O[C@@H](n2ccc(N)nc2=O)[C@](C)(N=[N+]=[N-])[C@@H]1O)Oc1ccccc1Cl` (stereo partly drawn) [Compound 93], the half-maximal effective concentration (EC50) (Hepatitis C virus, 72 h) amounted to 12 µM. Consider `C[C@@]1(N=[N+]=[N-])[C@H](O)[C@@H](CO)O[C@H]1n1ccc(N)nc1=O` [Compound 1], for which, under setting [1], the concentration for a half-maximal effect (EC50) was found to be 26 µM. With `CCOC(=O)[C@H](C)NP(=O)(OC[C@H]1O[C@@H](n2cnc3c(OC)nc(N)nc32)[C@](C)(N=[N+]=[N-])[C@@H]1O)Oc1ccc(Cl)cc1` (single isomer, unassigned) [Compound 290], the EC50 was 0.8 µM.

As for `CC(C)OC(=O)[C@H](C)NP(=O)(OC[C@H]1O[C@@H](n2ccc(N)nc2=O)[C@](C)(N=[N+]=[N-])[C@@H]1O)Oc1ccccc1Cl` (single isomer, unassigned) [Compound 333], the half-maximal effective concentration (EC50) amounted to 1.3 µM. Same read-out and setting: to `CCOC(=O)[C@H](C)NP(=O)(OC[C@H]1O[C@@H](n2cnc3c(OCC)nc(N)nc32)[C@](C)(N=[N+]=[N-])[C@@H]1O)Oc1ccccc1` (stereo partly drawn) [Compound 558] belongs 1 µM.

With `COC(=O)[C@H](C)NP(=O)(OC[C@H]1O[C@@H](n2ccc(N)nc2=O)[C@](C)(N=[N+]=[N-])[C@@H]1O)Oc1cccc2ccccc12` (stereo partly drawn) [Compound 47], the half-maximal effective concentration (EC50) (Hepatitis C virus, 72 h) is 0.4 µM. `CCCCOC(=O)[C@H](C)NP(=O)(OC[C@H]1O[C@@H](n2ccc(=O)[nH]c2=O)[C@](C)(N=[N+]=[N-])[C@@H]1O)Oc1ccc(Cl)cc1` (stereo partly drawn) [Compound 369]: where the note is “Hepatitis C virus, 72 h”, the 50% effective concentration (EC50) is 0.5 µM. As for `COC(=O)[C@H](C)NP(=O)(OC[C@H]1O[C@@H](n2ccc(N)nc2=O)[C@](C)(N=[N+]=[N-])[C@@H]1O)Oc1ccc(Cl)cc1` (single isomer, unassigned) [Compound 185], the concentration giving a half-maximal response (EC50) (Hepatitis C virus, 72 h) came out at 2.9 µM. The same measure, in the same setting: to `CCCOC(=O)[C@H](C)NP(=O)(OC[C@H]1O[C@@H](n2cnc3c(OC)nc(N)nc32)[C@](C)(N=[N+]=[N-])C1O)Oc1ccccc1` (single isomer, unassigned) [Compound 287] belongs 0.9 µM. In the case of `CC(C)COC(=O)[C@H](C)NP(=O)(OC[C@H]1O[C@@H](n2ccc(=O)[nH]c2=O)[C@](C)(N=[N+]=[N-])[C@@H]1O)Oc1ccccc1` (single isomer, unassigned) [Compound 210], the EC50 came out at 3.3 µM. In the case of `CCCCOC(=O)[C@H](C)NP(=O)(OC[C@H]1O[C@@H](n2cnc3c(OC)nc(N)nc32)[C@](C)(N=[N+]=[N-])C1O)Oc1ccccc1` (single isomer, unassigned) [Compound 262], the 50% effective concentration (EC50) (Hepatitis C virus, 72 h) came to 2.4 µM. On the same count and under the same terms, the result for `COC(=O)[C@H](C)NP(=O)(OC[C@H]1O[C@@H](n2cnc3c(OC)nc(N)nc32)[C@](C)(N=[N+]=[N-])[C@@H]1O)Oc1cccc2ccccc12` (stereo partly drawn) [Compound 57] reads 0.4 µM.

As to `COC(=O)[C@H](C)NP(=O)(OC[C@H]1O[C@@H](n2ccc(N)nc2=O)[C@](C)(N=[N+]=[N-])[C@@H]1O)Oc1ccccc1Cl` (stereo partly drawn) [Compound 94], the half-maximal effective concentration (EC50) is 10 µM. Consider `CCOc1nc(N)nc2c1ncn2[C@@H]1O[C@H](COP(=O)(N[C@@H](C)C(=O)OC(C)C)Oc2ccc3c(c2)OCO3)[C@@H](O)[C@@]1(C)N=[N+]=[N-]` (stereo partly drawn) [Compound 72], for which the concentration giving a half-maximal response (EC50) (Hepatitis C virus, 72 h) worked out at 0.8 µM.
